Source: patent US4877746A, “Methods of carrying out assays for lipoproteins and apolipoproteins” (Pharmacia AB, priority 1985, dated 1989)
Counter-ions that a name gives are not always drawn.

Experiments:
[1] = tested on: apo(a); assay: Immunoassay (sandwich, mouse antiapo(a) 125I) of apo(a) in serum after pretreatment at acidic and alkaline pH; assay type: binding; settings: for apo(a) concentration read off after alkaline pretreatment: alkaline pH; for apo(a) concentration read off after alkaline pretreatment / apo(a) concentration read off after acidic pretreatment: 1:1 with serum, RT; for apo(a) concentration read off after acidic pretreatment: acidic pH, 20 h
Procedure: (a) Alkaline pH. Equal volumes of serum and 0.13 M NaOH were mixed and incubated at room temperature (=RT) for 2 hours, whereupon phosphate buffer I was added up to an 18-fold dilution of the sample.
(b) Acidic pH. Equal volumes of serum and 0.2 M HCl were mixed and incubated at RT for 20 hours, whereupon phosphate buffer I was added up to an 18-fold dilution of the sample.
(c) Alkaline buffer system. Equal volumes of serum and 0.2 M trisodium phosphate were mixed and incubated at RT for 1 hour, whereupon phosphate buffer I was added up to an 18-fold dilution of the sample.
(§1) 50 μl from the reaction mixture of step 1 was diluted according to the dilution scheme 1/18-1/54-1/162-[…]-1/1458-1/4374. Each dilution was mixed with 50 μl of mouse antiapo(a) ^125 I and incubated for 1 hour at RT, whereupon 50 μl of goat antiapo(a) was added. The reaction mixture was kept standing for 0.5 hours at RT. This was followed by precipitation of the resultant complex with the aid of solid-phase-bound anti-antibodies (2 ml Decanting Suspension, 0.5 hr and RT). The suspension was centrifuged, the supernatant then being removed by decantation and discarded.
In separation experiments goat antiapo(a) was replaced with sheep antiapo(a) and monoclonal antiapo(a). These antibodies were tested in soluble as well as in solid-phase-bound form. Decanting suspension was excluded when solid-phase-bound antiapo(a)s were used.

[2] = tested on: Lp(a); assay: Sandwich immunoassay (method 1.2) of serum after prior art delipidating pretreatment, tracer uptake; assay type: binding
Procedure: as §1
Equal volumes of serum and pretreating solution were mixed and incubated for 2-16 hours, whereupon the sample was diluted 20-fold with phosphate buffer I. The testing method according to 1.2 was then applied to the reaction solutions. […]
The results are presented as % binding of total amount of tracer added

[3] = dilution 1/20, first concentration: SDS 0.5%, urea 4 M, guanidine HCl 2 M, Triton 2%, Renex 1%, lipase 500 U/l
[4] = dilution 1/20, second concentration: SDS 2.5%, urea 6 M, guanidine HCl 6 M, Triton 10%, Renex 5%, lipase 100 U/l
[5] = dilution 1/60, first concentration: SDS 0.5%, urea 4 M, guanidine HCl 2 M, Triton 2%, Renex 1%, lipase 500 U/l
[6] = dilution 1/60, second concentration: SDS 2.5%, urea 6 M, guanidine HCl 6 M, Triton 10%, Renex 5%, lipase 100 U/l
[7] = dilution 1/180, first concentration: SDS 0.5%, urea 4 M, guanidine HCl 2 M, Triton 2%, Renex 1%, lipase 500 U/l
[8] = dilution 1/180, second concentration: SDS 2.5%, urea 6 M, guanidine HCl 6 M, Triton 10%, Renex 5%, lipase 100 U/l
[9] = dilution 1/540, first concentration: SDS 0.5%, urea 4 M, guanidine HCl 2 M, Triton 2%, Renex 1%, lipase 500 U/l
[10] = dilution 1/540, second concentration: SDS 2.5%, urea 6 M, guanidine HCl 6 M, Triton 10%, Renex 5%, lipase 100 U/l

% binding of total amount of tracer added (uptake) [2, 3]	% binding of total amount of tracer added (uptake) [2, 4]	% binding of total amount of tracer added (uptake) [2, 5]	% binding of total amount of tracer added (uptake) [2, 6]	% binding of total amount of tracer added (uptake) [2, 7]	% binding of total amount of tracer added (uptake) [2, 8]	% binding of total amount of tracer added (uptake) [2, 9]	% binding of total amount of tracer added (uptake) [2, 10]	Structure (SMILES)	apo(a) concentration read off after acidic pretreatment ([1]; 0.2 M pretreating solution)	also measured
–	–	–	–	–	–	–	–	O=P([O-])([O-])[O-].[Na+].[Na+].[Na+] [Na3 PO4, trisodium phosphate]	–	apo(a) concentration read off after alkaline pretreatment ([1]; 0.2 M pretreating solution, 1 h): 354 U/l
–	–	–	–	–	–	–	–	Cl [HCl, hydrochloric acid]	41.0 U/l	–
–	–	–	–	–	–	–	–	O=C(O)CC(O)(CC(=O)O)C(=O)O [citric acid]	25.2 U/l	–
–	–	–	–	–	–	–	–	O=P(O)(O)O [H3 PO4]	28.4 U/l	–
10.0%	9.6%	5.4%	5.3%	3.6%	3.8%	3.2%	3.1%	NC(N)=O [UREA, Urea]	–	–
–	–	–	–	–	–	–	–	[Na+].[OH-] [NaOH, sodium hydroxide]	–	uptake on increased treatment time ([1]; 0.13 M NaOH, longer treatment time, given dilution): the uptake was lowered; apo(a) concentration read off after alkaline pretreatment ([1]; 0.13 M pretreating solution, 2 h): 333 U/l; effectiveness of pretreatment ([1]; sodium hydroxide solution versus hydrochloric acid solution): far more effective than a hydrochloric acid solution
10.0%	10.7%	5.6%	6.3%	3.6%	4.1%	3.1%	3.3%	N=C(N)N [GUANIDINE HCl, Guanidine - HCl]	–	–

Structure (SMILES)	% binding of total amount of tracer added (uptake) [2, 3]	% binding of total amount of tracer added (uptake) [2, 4]	% binding of total amount of tracer added (uptake) [2, 5]	% binding of total amount of tracer added (uptake) [2, 6]	% binding of total amount of tracer added (uptake) [2, 7]	% binding of total amount of tracer added (uptake) [2, 8]	% binding of total amount of tracer added (uptake) [2, 9]	% binding of total amount of tracer added (uptake) [2, 10]	apo(a) concentration read off after acidic pretreatment ([1]; 0.2 M pretreating solution)	also measured
CCCCCCCCCCCCOS(=O)(=O)[O-].[Na+] [SDS, sodium dodecyl sulfate]	10.1%	18.8%	5.3%	13.3%	3.6%	7.0%	3.0%	4.5%	–	–
